In BindingDB's records for doi:10.1016/j.bmcl.2007.07.028 (Bristol-Myers Squibb, 2007) one finds IC50 data, which are given here for eight compounds.

Molecules are shown by their SMILES.

Usually IC50 stands for the concentration that gives 50% inhibition.

This assay in a line: Antagonist activity at CCR2 in human PBMCs assessed as inhibition of MCP1-induced chemotaxis.
Turning to `Cc1ccc(CNC[C@H](NC(=O)CNC(=O)c2cc(C(F)(F)F)ccc2NC(=O)NC(C)C)C(=O)NC(C)(C)C)c(C)c1` [(S)-1-(2-((2-(3-(2,4-dimethylbenzylamino)-1-(tert-butylamino)-1-oxopropan-2-ylamino)-2-oxoethyl)carbamoyl)-4-(trifluoromethyl)phenyl)-3-isopropylurea], the IC50 came out at 0.24 µM.
Turning to `Cc1ccc(CNC[C@H](NC(=O)CNC(=O)c2cc(C(F)(F)F)ccc2NCc2ccccc2)C(=O)NC(C)(C)C)c(C)c1` [(S)-N-(2-(3-(2,4-dimethylbenzylamino)-1-(tert-butylamino)-1-oxopropan-2-ylamino)-2-oxoethyl)-2-(benzylamino)-5-(trifluoromethyl)benzamide], the IC50 amounted to 0.039 µM.
Regarding `CCNc1ccc(C(F)(F)F)cc1C(=O)NCC(=O)N[C@@H](CNCc1ccc(C)cc1C)C(=O)NC(C)(C)C` [(S)-N-(2-(3-(2,4-dimethylbenzylamino)-1-(tert-butylamino)-1-oxopropan-2-ylamino)-2-oxoethyl)-2-(ethylamino)-5-(trifluoromethyl)benzamide], the IC50 is 0.1 µM.
As for `Cc1ccc(CNC[C@H](NC(=O)CNC(=O)c2cc(C(F)(F)F)ccc2N)C(=O)NC(C)(C)C)c(C)c1` [(S)-N-(2-(3-(2,4-dimethylbenzylamino)-1-(tert-butylamino)-1-oxopropan-2-ylamino)-2-oxoethyl)-2-amino-5-(trifluoromethyl)benzamide], the half-maximal inhibitory concentration (IC50) amounted to 0.26 µM.
In the case of `CCNc1cc(C(=O)NCC(=O)N[C@@H](CNCc2ccc(C)cc2C)C(=O)NC(C)(C)C)cc(C(F)(F)F)c1` [(S)-N-(2-(3-(2,4-dimethylbenzylamino)-1-(tert-butylamino)-1-oxopropan-2-ylamino)-2-oxoethyl)-3-(ethylamino)-5-(trifluoromethyl)benzamide] it was 0.19 µM.
To `Cc1ccc(CNC[C@H](NC(=O)CNC(=O)c2cccc(C(F)(F)F)c2)C(=O)NC(C)(C)C)c(C)c1` [(S)-N-(2-(3-(2,4-dimethylbenzylamino)-1-(tert-butylamino)-1-oxopropan-2-ylamino)-2-oxoethyl)-3-(trifluoromethyl)benzamide] belongs more than 3 µM; to `Cc1ccc(CNC[C@H](NC(=O)CNC(=O)c2cc(N)cc(C(F)(F)F)c2)C(=O)NC(C)(C)C)c(C)c1` [(S)-N-(2-(3-(2,4-dimethylbenzylamino)-1-(tert-butylamino)-1-oxopropan-2-ylamino)-2-oxoethyl)-3-amino-5-(trifluoromethyl)benzamide], 0.72 µM.
As for `Cc1ccc(CNC[C@H](NC(=O)CNC(=O)c2cccc(C(F)(F)F)c2)C(N)=O)c(C)c1` [(S)-N-(2-(3-(2,4-dimethylbenzylamino)-1-amino-1-oxopropan-2-ylamino)-2-oxoethyl)-3-(trifluoromethyl)benzamide], the IC50 is more than 1.5 µM.
